Experimental data taken from ChEMBL document CHEMBL4138123, “Design, synthesis and biological evaluation of novel pyrazolochalcones as potential modulators of PI3K/Akt/mTOR pathway and inducers of apoptosis in breast cancer cells” (Eur J Med Chem, 2017).

Experiments:
Format in all cases: functional
[1] = test system: SK-MEL-28; test: Cytotoxicity against human SK-MEL-28 cells assessed as cell growth at 0.01 uM after 48 hrs by sulforhodamine B assay relative to control; conditions: SK-MEL-28, 48 h, read-out: Activity
[2] = test system: OVCAR-8; test: Cytotoxicity against human OVCAR8 cells assessed as cell growth at 10 uM after 48 hrs by sulforhodamine B assay relative to control; conditions: OVCAR-8, 48 h, read-out: Activity
[3] = test system: UACC-257; test: Cytotoxicity against human UACC257 cells assessed as cell growth at 0.1 uM after 48 hrs by sulforhodamine B assay relative to control; conditions: UACC-257, 48 h, read-out: Activity
[4] = test system: HCT-15; test: Cytotoxicity against human HCT15 cells assessed as cell growth at 10 uM after 48 hrs by sulforhodamine B assay relative to control; conditions: HCT-15, 48 h, read-out: Activity
[5] = test system: KM12; test: Cytotoxicity against human KM12 cells assessed as cell growth at 0.01 uM after 48 hrs by sulforhodamine B assay relative to control; conditions: KM12, 48 h, read-out: Activity
[6] = test system: CCRF-CEM; test: Cytotoxicity against human CCRF-CEM cells assessed as growth inhibition after 48 hrs by sulforhodamine B assay
[7] = test system: MDA-MB-468; test: Cytotoxicity against human MDA-MB-468 cells assessed as cell growth at 0.01 uM after 48 hrs by sulforhodamine B assay relative to control; conditions: MDA-MB-468, 48 h, read-out: Activity
[8] = test system: HCT-116; test: Cytotoxicity against human HCT116 cells assessed as cell growth at 10 uM after 48 hrs by sulforhodamine B assay relative to control; conditions: HCT-116, 48 h, read-out: Activity
[9] = test system: DU-145; test: Cytotoxicity against human DU145 cells assessed as growth inhibition after 48 hrs by sulforhodamine B assay; conditions: DU-145, 48 h; for CC50: read-out: LC50 (the source's name)
[10] = test system: KM12; test: Cytotoxicity against human KM12 cells assessed as cell growth at 1 uM after 48 hrs by sulforhodamine B assay relative to control; conditions: KM12, 48 h, read-out: Activity
[11] = test system: SR; test: Cytotoxicity against human SR cells assessed as cell growth at 0.1 uM after 48 hrs by sulforhodamine B assay relative to control; conditions: read-out: Activity
[12] = test system: TK-10; test: Cytotoxicity against human TK10 cells assessed as cell growth at 0.01 uM after 48 hrs by sulforhodamine B assay relative to control; conditions: TK-10, 48 h, read-out: Activity
[13] = test system: SNB-19; test: Cytotoxicity against human SNB19 cells assessed as cell growth at 10 uM after 48 hrs by sulforhodamine B assay relative to control; conditions: SNB-19, 48 h, read-out: Activity
[14] = test system: HT-29; test: Cytotoxicity against human HT-29 cells assessed as cell growth at 0.01 uM after 48 hrs by sulforhodamine B assay relative to control; conditions: HT-29, 48 h, read-out: Activity
[15] = test system: HCC 2998; test: Cytotoxicity against human HCC2998 cells assessed as cell growth at 10 uM after 48 hrs by sulforhodamine B assay relative to control; conditions: HCC 2998, 48 h, read-out: Activity
[16] = test system: PC-3; test: Cytotoxicity against human PC3 cells assessed as growth inhibition after 48 hrs by sulforhodamine B assay; conditions: PC-3, 48 h
[17] = test system: M14; test: Cytotoxicity against human M14 cells assessed as growth inhibition after 48 hrs by sulforhodamine B assay; conditions: M14, 48 h
[18] = test system: COLO 205; test: Cytotoxicity against human COLO205 cells assessed as cell growth at 0.1 uM after 48 hrs by sulforhodamine B assay relative to control; conditions: COLO 205, 48 h, read-out: Activity
[19] = test system: OVCAR-5; test: Cytotoxicity against human OVCAR5 cells assessed as cell growth at 10 uM after 48 hrs by sulforhodamine B assay relative to control; conditions: OVCAR-5, 48 h, read-out: Activity
[20] = test system: OVCAR-3; test: Cytotoxicity against human OVCAR3 cells assessed as growth inhibition after 48 hrs by sulforhodamine B assay; conditions: OVCAR-3, 48 h
[21] = test system: MDA-MB-435; test: Cytotoxicity against human MDA-MB-435 cells assessed as growth inhibition after 48 hrs by sulforhodamine B assay; conditions: MDA-MB-435, 48 h
[22] = test system: UO-31; test: Cytotoxicity against human UO31 cells assessed as cell growth at 0.1 uM after 48 hrs by sulforhodamine B assay relative to control; conditions: UO-31, 48 h, read-out: Activity
[23] = test system: A498; test: Cytotoxicity against human A498 cells assessed as cell growth at 100 uM after 48 hrs by sulforhodamine B assay relative to control; conditions: A498, 48 h, read-out: Activity
[24] = test system: COLO 205; test: Cytotoxicity against human COLO205 cells assessed as cell growth at 10 uM after 48 hrs by sulforhodamine B assay relative to control; conditions: COLO 205, 48 h, read-out: Activity
[25] = test system: COLO 205; test: Cytotoxicity against human COLO205 cells assessed as growth inhibition after 48 hrs by sulforhodamine B assay; conditions: COLO 205, 48 h
[26] = test system: MDA-MB-231; test: Cytotoxicity against human MDA-MB-231 cells assessed as cell growth at 10 uM after 48 hrs by sulforhodamine B assay relative to control; conditions: MDA-MB-231, 48 h, read-out: Activity
[27] = test system: HCC 2998; test: Cytotoxicity against human HCC2998 cells assessed as cell growth at 0.01 uM after 48 hrs by sulforhodamine B assay relative to control; conditions: HCC 2998, 48 h, read-out: Activity
[28] = test system: SK-OV-3; test: Cytotoxicity against human SKOV3 cells assessed as cell growth at 0.1 uM after 48 hrs by sulforhodamine B assay relative to control; conditions: SK-OV-3, 48 h, read-out: Activity
[29] = test system: Hs-578T; test: Cytotoxicity against human Hs 578T cells assessed as cell growth at 1 uM after 48 hrs by sulforhodamine B assay relative to control; conditions: read-out: Activity
[30] = test system: HCC 2998; test: Cytotoxicity against human HCC2998 cells assessed as cell growth at 0.1 uM after 48 hrs by sulforhodamine B assay relative to control; conditions: HCC 2998, 48 h, read-out: Activity
[31] = test system: Hs-578T; test: Cytotoxicity against human Hs 578T cells assessed as cell growth at 0.01 uM after 48 hrs by sulforhodamine B assay relative to control; conditions: read-out: Activity
[32] = test system: LOX IMVI; test: Cytotoxicity against human LOXIMVI cells assessed as growth inhibition after 48 hrs by sulforhodamine B assay
[33] = test system: HOP-62; test: Cytotoxicity against human HOP62 cells assessed as cell growth at 1 uM after 48 hrs by sulforhodamine B assay relative to control; conditions: HOP-62, 48 h, read-out: Activity
[34] = test system: SN12C; test: Cytotoxicity against human SN12C cells assessed as cell growth at 0.1 uM after 48 hrs by sulforhodamine B assay relative to control; conditions: read-out: Activity
[35] = test system: HCT-15; test: Cytotoxicity against human HCT15 cells assessed as cell growth at 0.01 uM after 48 hrs by sulforhodamine B assay relative to control; conditions: HCT-15, 48 h, read-out: Activity

For `COc1ccc(C(=O)/C=C/c2cc(-c3ccc4c(c3)OCO4)n[nH]2)cc1OC`, the growth at 0.01 µM [1] was 99%, the growth at 10 µM [2] was -27% and the growth at 0.1 µM [3] was 95%. For the same molecule, the growth at 10 µM [4] was 6%, the growth at 0.01 µM [5] was 99% and the LC50 (concentration killing 50% of cells) [6] was > 100 µM. The TGI [6] was 9.58 µM, the growth at 0.01 µM [7] was 92% and the growth at 10 µM [8] was -9%. The GI50 [9] was 1.86 µM, the TGI [9] was 4.27 µM and the CC50 [9] was 9.8 µM. For the same molecule, the growth at 1 µM [10] was 94%, the growth at 0.1 µM [11] was 88% and the growth at 0.01 µM [12] was 91%. It also gave a growth at 10 µM [13] of 21%, a growth at 0.01 µM [14] of 93% and a growth at 10 µM [15] of 27%. The GI50 [16] was 2.58 µM, the LC50 [16] was > 100 µM and the TGI [16] was 18.2 µM. It also gave an LC50 (concentration killing 50% of cells) [17] of 58.4 µM, a TGI [17] of 21.4 µM and a growth at 0.1 µM [18] of 103%. It also gave a growth at 10 µM [19] of 17%, an LC50 [20] of 14.3 µM and a TGI [20] of 4.61 µM. For the same molecule, the LC50 [21] was 99 µM, the TGI [21] was 10 µM and the growth at 0.1 µM [22] was 81%. The growth at 100 µM [23] was -93%, the growth at 10 µM [24] was 14% and the LC50 [25] was 45.9 µM. For the same molecule, the TGI [25] was 14 µM, the growth at 10 µM [26] was -14% and the growth at 0.01 µM [27] was 98%. The growth at 0.1 µM [28] was 99%, the growth at 1 µM [29] was 94% and the growth at 0.1 µM [30] was 97%. The growth at 0.01 µM [31] was 96%, the LC50 [32] was 8.46 µM and the TGI [32] was 4.08 µM. It also gave a growth at 1 µM [33] of 87%, a growth at 0.1 µM [34] of 95% and a growth at 0.01 µM [35] of 92%.

With `COc1ccc(-c2cc(/C=C/C(=O)c3ccc(N)cc3)[nH]n2)cc1OC` the growth at 0.01 µM [1] was 92%, the growth at 10 µM [2] was 2% and the growth at 0.1 µM [3] was 90%. It also gave a growth at 10 µM [4] of -27%, a growth at 0.01 µM [5] of 102% and a GI50 [6] of 1.74 µM. The LC50 (concentration killing 50% of cells) [6] was > 100 µM, the TGI [6] was 7.81 µM and the growth at 0.01 µM [7] was 94%. The growth at 10 µM [8] was -73%, the GI50 [9] was 3.74 µM and the TGI [9] was 13.5 µM. For the same molecule, the CC50 [9] was 36.8 µM, the growth at 1 µM [10] was 88% and the growth at 0.1 µM [11] was 104%. It also gave a growth at 0.01 µM [12] of 102%, a growth at 10 µM [13] of 31% and a growth at 0.01 µM [14] of 98%. The growth at 10 µM [15] was -75%, the GI50 [16] was 3.71 µM and the LC50 [16] was > 100 µM. The TGI [16] was 19.8 µM, the GI50 [17] was 2.28 µM and the LC50 (concentration killing 50% of cells) [17] was 15 µM. The TGI [17] was 5.11 µM, the growth at 0.1 µM [18] was 95% and the growth at 10 µM [19] was -10%. For the same molecule, the GI50 [20] was 1.92 µM, the LC50 [20] was 9.14 µM and the TGI [20] was 4.19 µM. It also gave a GI50 [21] of 2.53 µM, an LC50 [21] of 40.8 µM and a TGI [21] of 7.23 µM. For the same molecule, the growth at 0.1 µM [22] was 99%, the growth at 100 µM [23] was -98% and the growth at 10 µM [24] was -79%. It also gave a GI50 [25] of 1.88 µM, an LC50 [25] of 6.87 µM and a TGI [25] of 3.59 µM. It also gave a growth at 10 µM [26] of 24%, a growth at 0.01 µM [27] of 102% and a growth at 0.1 µM [28] of 102%. For the same molecule, the growth at 1 µM [29] was 96%, the growth at 0.1 µM [30] was 100% and the growth at 0.01 µM [31] was 98%. For the same molecule, the GI50 [32] was 1.92 µM, the LC50 [32] was 7.98 µM and the TGI [32] was 3.91 µM. For the same molecule, the growth at 1 µM [33] was 92%, the growth at 0.1 µM [34] was 99% and the growth at 0.01 µM [35] was 93%.
